Results published in patent US20140023647A1, “METHOD FOR TREATING SOLID TUMORS” (BELLICUM PHARMACEUTICALS, INC., priority 2010, published 2014).
Where two headings read alike, the source gives them in different places.

How the values were obtained:
FKBP12(V36) = target: T1, FKBP12(V36) (Homo sapiens, UniProt P62942, F37V); experiment: AP1903 needed in vitro for effective signaling of cells; format: cell-based
T1 construct: expressed in transfected cells; host or cells: cells transduced with Ad5f35-ihCD40 (human monocyte-derived dendritic cells); inferred, the sentence names no cells
T1 sequence (P62942 2-108 F37V): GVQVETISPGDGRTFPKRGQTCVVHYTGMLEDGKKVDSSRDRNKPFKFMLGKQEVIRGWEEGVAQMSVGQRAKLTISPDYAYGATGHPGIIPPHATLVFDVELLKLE
Description: The fixed dose of AP1903 for Injection used in this study is 0.4 mg/kg intravenously infused over 2 hours. The amount of AP1903 needed in vitro for effective signaling of cells is 10-100 nM (1600 Da MW). This equates to 16-160 μg/L or ˜0.016-1.6 mg/kg (1.6-160 μg/kg). Doses up to 1 mg/kg were well-tolerated in the Phase I study of AP1903 described above. Therefore, 0.4 mg/kg may be a safe and effective dose of AP1903 for this Phase I study in combination with BPX-101.

[1] = cited from earlier work
NFkappaB = NFkappaB reporter assay, iCD40 constructs in Jurkat T cells with titrated AP20187; format: cell-based, human
Description: Reporters assays were conducted in human Jurkat-TAg (T cells) or 293 (kidney embryonic epithelial) cells or murine RAW264.7 (macrophage) cells. Jurkat-TAg cells (107) in log-phase growth were electroporated ([…], 250 V) with […] expression plasmid and […] of reporter plasmid NF-kB-SEAP or IFNb-TA-SEAP (see above). 293 or RAW264.7 cells (˜2×10^5 cells per 35-mm dish) in log phase were transfected with […] of FuGENE-6 in growth media. After 24 hr, transformed cells were stimulated with CID. After an additional 20 h, supernatants were assayed for SEAP activity as discussed previously (Spencer, D. M., et al., Science 262, 1019-1024 (1993)).
An inducible CD40 receptor based on chemical-induced dimerization (CID) and patterned after endogenous CD40 activation was produced to specifically target DCs (FIG. 1A). The recombinant CD40 receptor, termed iCD40, was engineered by rt-PCR amplifying the 228 bp CD40 cytoplasmic signaling domain from purified murine bone marrow-derived DCs (>95% CD11c+) and sub-cloning the resulting DNA fragment either downstream (i.e., M-FvFvlsCD40-E) or upstream (M-CD40-FvFvls-E) of tandem copies of the dimerizing drug binding domain, FKBP12(V36) (FIG. 1B). […]

IL-6 = target: T2, IL-6 (Homo sapiens, UniProt P05231); conditions: cited from earlier work
T2 construct: host or cells: patients' endogenous IL-6
T2 sequence (P05231 30-212): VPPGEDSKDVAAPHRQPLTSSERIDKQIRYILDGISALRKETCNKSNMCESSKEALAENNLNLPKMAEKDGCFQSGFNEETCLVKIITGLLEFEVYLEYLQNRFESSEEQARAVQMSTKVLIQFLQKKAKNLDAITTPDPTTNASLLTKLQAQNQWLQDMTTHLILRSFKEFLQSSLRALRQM

[2] = patients with advanced cancer, Clarke et al.

CC[C@H](C(=O)N1CCCC[C@H]1C(=O)O[C@H](CCc1ccc(OC)c(OC)c1)c1cccc(OCC(=O)NCCNC(=O)COc2cccc([C@@H](CCc3ccc(OC)c(OC)c3)OC(=O)[C@@H]3CCCCN3C(=O)[C@@H](CC)c3cc(OC)c(OC)c(OC)c3)c2)c1)c1cc(OC)c(OC)c(OC)c1 (relative stereo) [AP1903, 2-Piperidinecarboxylic acid, 1-[(2S)-1-oxo-2-(3,4,5-trimethoxyphenyl)butyl]-, 1,2-ethanediylbis[imino(2-oxo-2,1-ethanediyl)oxy-3,1-phenylene[(1R)-3-(3,4-dimethoxyphenyl)propylidene]]ester, [2S-[1(R*),2R*[S*[S*[1(R*),2R*]]]]]-(9Cl)]
amount needed for effective signaling, converted to dose (FKBP12(V36)): 0.016 to 1.6 mg/kg
amount needed in vitro for effective signaling of cells (FKBP12(V36)): 10 to 100 nM
amount needed for effective signaling, converted (FKBP12(V36); 1600 Da MW): 16 to 160 µg/L
mean Cmax ([1]; 0.01-1.0 mg/kg dose range, IV over 2 hours, plasma): 10 to 1275 ng/mL
AP1903 plasma levels versus dose ([1]; 0.01-1.0 mg/kg): directly proportional to dose
plasma level as % of maximal concentration ([1]; 0.5 hours post-dose): approximately 18%
plasma level as % of maximal concentration ([1]; 2 hours post-dose): ~7%
plasma level as % of maximal concentration ([1]; 10 hours post-dose): ~1%
well-tolerated doses ([1]; Phase I study of AP1903): up to 1 mg/kg

CC[C@H](C(=O)N1CCCC[C@H]1C(=O)O[C@H](CCc1ccc(OC)c(OC)c1)c1cccc(OCC(=O)NCC(CNC(=O)COc2cccc([C@@H](CCc3ccc(OC)c(OC)c3)OC(=O)[C@@H]3CCCCN3C(=O)[C@@H](CC)c3cc(OC)c(OC)c(OC)c3)c2)CN(C)C)c1)c1cc(OC)c(OC)c(OC)c1 [AP20187]
high drug dose suppression (NFkappaB; iCD40-transfected Jurkat T cells): over 100 nM
NF B transcriptional activity (NFkappaB; increasing AP20187, iCD40 constructs vs control vector M-FvFvls-E): significant upregulation

B1: ALD-518: humanized anti-IL-6 monoclonal antibody (antibody, chains of the INN, looked up, V domains shown)
VH: EVQLVESGGGLVQPGGSLRLSCAASGFSLSNYYVTWVRQAPGKGLEWVGIIYGSDETAYATSAIGRFTISRDNSKNTLYLQMNSLRAEDTAVYYCARDDSSDWDAKFNLWGQGTLVTVSS
VL: AIQMTQSPSSLSASVGDRVTITCQASQSINNELSWYQQKPGKAPKLLIYRASTLASGVPSRFSGSGSGTDFTLTISSLQPDDFATYYCQQGYSLRNIDNAFGGGTKVEIK
hematologic parameters and albumin (IL-6; larger study, cancer-related anemia, cachexia and fatigue, Schuster et al.): increase hemoglobin, hematocrit, mean corpuscular hemoglobin, and albumin
C-reactive protein levels (IL-6; [2]): decrease in C-reactive protein levels
fatigue, hemoglobin and albumin (IL-6; [2]): reverse fatigue, increase hemoglobin and increase albumin
hand grip strength (IL-6; [2]): trend to increased hand grip strength
